Assays:
[1] = test system: EMT6 cell line; test: In vitro assay for susceptibility to STING agonists, ELISA of interferon β, EMT6; type: cell-based, mouse; details: EMT6 MTAP(−) cells compared with MTAP(+) cells, 100 μg/mL STING agonist, 24 hours
Experimental: (§1) Two cancer cell lines, the mouse mammary carcinoma cell line EMT6 and the mouse colon adenocarcinoma cell line MC38, were used in the present invention as the models of cell assays.
(§2) These two cancer cell lines were divided into two groups, one group was treated with cell culture medium, and named as MTAP (+); the other group was treated with siRNA of the S-methyl-5′-thioadenosine phosphorylase (MTAP) for gene knock-out, and named as MTAP(−).
In the present invention, two cancer cell lines (EMT6 cell line and MC38 cell line) of MTAP (+) and MTAP (−) were stimulated with STING agonists, and then the expression level of Type I Interferon was measured to determine the activity of the STING agonists. […]
(§3) The cells were harvested, and a portion of the cells was used for enzyme-linked immunosorbent assay (ELISA) to detect the expression level of interferon β (IFN β); the other portion was used for extraction of mRNA with TRizol, and then real-time quantitative reverse transcription polymerase chain reaction (RT-qPCR) was used to amplify its DNA fragments for detecting the gene expression levels of the interferon beta gene (IFNb1) and interferon-stimulated genes MX1 and ISG15.

[2] = test system: MC38 cell line; test: In vitro assay for susceptibility to STING agonists, ELISA of interferon β, MC38; type: cell-based, mouse; details: 100 μg/mL STING agonist, 24 hours
Experimental: as §1, §2
In the present invention, two cancer cell lines (EMT6 cell line and MC38 cell line) of MTAP (+) and MTAP (−) were stimulated with STING agonists, and then the expression level of Type I Interferon was measured to determine the activity of the STING agonists.
The STING agonists used in the present invention included MIW815 and E7766, and two cells were divided into six groups, respectively, the MTAP(+) Control Group, the MTAP(−) Control Group, MTAP(+) MIW815 Group, MTAP(+) E7766 Group, MTAP(−) MIW815 Group and MTAP(−) E7766 Group.
In this assay, after culturing the EMT6 cell line and the MC38 cell line for 12 hours, the medium of the cells in the MTAP(+) STING Group and the MTAP(−) STING Group were replaced with a medium containing 100 μg/mL of STING agonists, and then subjected to stimulation for 24 hours.
as §3

[3] = test system: EMT6 cell lines; test: Animal experiment, tumor size of mice inoculated with EMT6 cell lines; type: in vivo
Experimental: In the present invention, the EMT6 cell lines with expressed MTAP (MTAP(+) Group) and the EMT6 cell lines with no expressed MTAP (MTAP(−) Group) were inoculated into mice for in vivo assays of the activity of STING agonists.
In this experiment, MIW815 was selected as the STING agonist, and the mice were divided into 4 groups, 5 mice in each group, namely the MTAP(+) Control Group, the MTAP(−) Control Group, the MTAP(+) MIW815 Group and the MTAP(−) MIW815 Group.
Drugs were administered after the cancer cells grew to be more than 100 mm^3. Phosphate buffered saline solution (PBS) was given to the MTAP(+) Control Group and the MTAP(−) Control Group; and 50 μg of STING agonist MIW815 was given to the MTAP(+) MIW815 Group and the MTAP(−) MIW815 Group at Day 9, 12 and 16.

[4] = MC38 MTAP(−) cells compared with MTAP(+) cells

With `O=[P@]1(S)OC[C@H]2O[C@@H]3[C@H](F)[C@@H]2O[P@](=O)(S)OC[C@H]2O[C@H]([C@H](F)[C@@H]2O1)n1cnc2c(ncnc21)NC/C=C/CNc1ncnc2c1ncn23` [E7766] the “expression of interferon β (IFN β), ELISA” value (“expression of interferon β” for short) [1] was “significantly lower”, the “expression of interferon β” value ([2]; MC38 MTAP(+) cells) was “effectively stimulated the expression of IFN 13” and the “expression of interferon β” value [2, 4] was “significantly lower”.

`Nc1ncnc2c1ncn2[C@@H]1O[C@@H]2COP(=O)([S-])O[C@@H]3[C@H](O)[C@@H](COP([O-])(=S)O[C@H]2[C@H]1O)O[C@H]3n1cnc2c(N)ncnc21.[Na+].[Na+]` (some centres unmarked) [MIW815] was tested, and the “expression of interferon β” value [1] was “significantly lower”, the tumor size ([3]; EMT6 MTAP(+) tumors, 50 μg at Day 9, 12 and 16, compared with MTAP(+) Control Group (PBS)) was “significantly smaller” and the tumor size ([3]; EMT6 MTAP(−) tumors, 50 μg at Day 9, 12 and 16, compared with MTAP(−) Control Group (PBS)) was “not statistically different”. For the same molecule, the “expression of interferon β” value ([2]; MC38 MTAP(+) cells) was “effectively stimulated the expression of IFN 13” and the “expression of interferon β” value [2, 4] was “significantly lower”.

Reference: patent publication US20220364181A1, “METHOD AND A KIT FOR PREDICTING THE SUSCEPTIBILITY TO STIMULATOR OF INTERFERON GENES (STING) AGONISTS IN A CANCER PATIENT” (China Medical University, priority 2021, published 2022)
